What was measured:
[1] = tested on: Staphylococcus aureus ATCC 6538; assay: Example 4: di(1,3-propanediol) and DPG, plate counts; format: cell-based; conditions: for CFU/mL: S. aureus inoculum; for effect on gram positive bacteria (in words): S. aureus
Experimental: [The source words this procedure for another target and reports this target under the same test.] (§1) Two test microorganisms were used, the Gram-negative bacterium, Escherichia coli ATCC 8739, and the Gram-positive bacterium, Staphylococcus aureus ATCC 6538. These microrganisms were grown overnight in 10 mL Tryptic soy broth (TSB) starter cultures, and then inoculated into Klett flasks containing 30 mL of TSB. The Klett flasks were incubated on an incubator shaker at 37° C. until the desired Klett reading was obtained (early stationary phase). Each test inoculum was prepared by adding 0.1 mL of the Klett flask culture to 9.9 mL of Mueller-Hinton II Broth (cation-adjusted) or M9 Broth.
(§2) The unfractionated mixture, each fraction, a control, and DPG (comparative example) were analyzed for antibacterial or bacteristatic properties against E. coli according to the protocol shown below. Numbers in exponential format are indicated with “E”, i.e. 2.2×10^+9 are written as 2.2E+09.

[2] = tested on: Escherichia coli ATCC 8739; assay: as above; format: cell-based; conditions: for CFU/mL: E. coli inoculum
Experimental: as §1, §2

Compound	CFU/mL ([1]; Conc. 0.1%)	CFU/mL ([1]; Conc. 0.5%)	CFU/mL ([1]; Conc. 1%)	effect on gram positive bacteria (in words) ([1]; concentrations of 0.5% and 1%)	CFU/mL ([2]; Conc. 0.1%)	CFU/mL ([2]; Conc. 0.5%)	CFU/mL ([2]; Conc. 1%)	effect on gram negative bacteria (in words) ([2]; E. coli, concentrations of 0.5% and 1%)	CFU/mL ([1]; Conc. 10%)	effect on gram positive bacteria (in words) ([1]; 0.1 to 10%)	CFU/mL ([2]; Conc. 10%)
OCCCOCCCO [PDO Dimer, di(1,3-propanediol)]	2.7E+07 CFU/mL	1.4E+04 CFU/mL	1.6E+03 CFU/mL	kills or inhibits the growth	3.2E+08 CFU/mL	7.6E+02 CFU/mL	<10 CFU/mL	kills or inhibits the growth			
1,2-dipropaneglycol [DPG]	2.0E+07 CFU/mL	2.0E+07 CFU/mL	2.0E+07 CFU/mL		2.1E+08 CFU/mL	2.9E+08 CFU/mL	3.7E+08 CFU/mL		2.1E+07 CFU/mL	little or no antibacterial or bacteristatic effect	1.5E+05 CFU/mL
